Assay results taken from patent US20240366842A1, “DECELLULARIZED TISSUE HYDROGELS” (THE UNIVERSITY OF NOTTINGHAM, priority 2021, published 2024).

Legend:
[1] = tested on: SH-SY5Y (human neuroblastoma cell line); assay: LDH cytotoxicity assay, direct testing; type: cell-based; conditions: gel in contact with cell monolayer 24 hours, 1 mM in 5% v/v DMSO, 10 mM in 10% v/v DMSO
Description: (§1) The cytotoxicity of PA crosslinked decellularized tissue hydrogels was assessed by an LDH assay in which hydrogels were incubated with SH-SY5Y (human neuroblastoma cell line).
(§2) Crosslinkers tested were: • PA [publicly available food supplement] • Purified oligomeric PA (OPA) [reference standard quality] • GA • GP
(§3) These were all tested in 1 and 10 mM concentrations, with the 1 mM in a solution containing 5% v/v of DMSO, and the 10 mM in a solution containing 10% v/v DMSO.
(§4) The LDH assay quantifies how many cells have died by quantifying the level of lactate that is present in the culture medium which will have been released upon cell membrane disruption during their death. The assay contains […] releases NADH which in turn can react with the dye present in the assay solutions to produce a colorimetric change. This change can be read through absorbance on a microplate spectrophotometer.
(§5) All results for the LDH have been calculated to % cytotoxicity as per the following formula recommended by the manufacturer: […]
Gels were made and crosslinked as per normal procedure and immersed in Hanks balanced salt solution (HBSS) containing 1% v/v of antibiotics and antimycotics overnight. The gels were then removed and immersed into culture media for 2 hours before placing on top of the cell monolayer and ensuring direct contact. […]

[2] = tested on: SH-SY5Y (human neuroblastoma cell line); assay: LDH cytotoxicity assay, indirect (extract) testing; type: cell-based; conditions: media conditioned 72 hours, cells exposed 24 hours, 1 mM in 5% v/v DMSO, 10 mM in 10% v/v DMSO
Description: as §1, §2, §3, §4, §5
Gels were made and crosslinked as per normal procedure and immersed in culture media for 72 hours conditioning. The conditioned culture media was then filtered and placed onto cells for a period of 24 hours. Following exposure to the conditioned media, a sample of the media was removed for testing through LDH.

Triton-X-100 [5% Triton]
LDH (% cytotoxicity relative to Triton) [1]: 100%
LDH (% cytotoxicity relative to Triton) [2]: 100%
